The assay has as its target Fibroblast growth factor 22 (Homo sapiens) (UniProt Q9HCT0). The assay can be described thus: binders of human FGF22 protein, dose response, FGF22 synaptogenesis inhibitor project, biophysical, thermal shift, cherry-pick retest (AID 720646). Particulars: recombinant FGF22 thermal shift, SYPRO orange fluorescence.

Molecules are shown by their SMILES. The source made the active and inactive calls.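 The calls were made as follows: active = fitted rise in melting shift crosses a set limit at or below the top valid dose tested; inconclusive = flat fit at mid-level activity, or a poor quality fit; inactive = the rest.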

Sequence of Fibroblast growth factor 22 (Homo sapiens) (Q9HCT0 whole entry, looked up): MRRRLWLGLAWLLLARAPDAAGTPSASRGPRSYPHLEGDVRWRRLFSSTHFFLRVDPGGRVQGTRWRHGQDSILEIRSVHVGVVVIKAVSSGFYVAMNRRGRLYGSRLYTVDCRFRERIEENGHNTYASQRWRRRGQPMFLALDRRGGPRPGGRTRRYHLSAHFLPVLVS

Regarding `CCC(=O)Nc1nc(C)c(-c2csc(Nc3ccccn3)n2)s1`, the AC is 21.6 µM.
With `O=S1(=O)N=C(N(Cc2cccs2)c2ccc(O)cc2)c2ccccc21` the figure was 20.4 µM.
The figure for `CCC(CC)CN1CCC(CN2C(=O)C(=O)NC[C@@H]2CC(C)C)CC1` is > 38 µM (inactive); for `COc1ccc(NC(=O)CCCN2C(=O)CN(C)C2=O)c(OC)c1` it is > 38 µM (inactive).
With `Cc1ccc(NC(=O)c2ccc(OCc3c(C)noc3C)cc2)c(C)c1` the figure was 34.2 µM; with `CC1([N+](=O)[O-])COP(=O)(NC2CC2)OC1` (centres undefined), 21.5 µM; with `Nc1nnc(CC(=O)N/N=C/c2cc([N+](=O)[O-])cc(Br)c2O)s1`, 24.7 µM.
As to `O=C(N/N=C\c1c[nH]c2ccccc12)c1ccc(O)cc1`, the AC is 16.8 µM.
`C[C@@H]1CN([C@@H](C)CO)S(=O)(=O)c2ccc(-c3cccc(C#N)c3)cc2O[C@@H]1CN(C)C(=O)Nc1cc(F)ccc1F`: the AC is > 38 µM (inactive).
With `O=S(=O)(Nc1nnc(C(F)(F)F)s1)c1ccc(Cl)cc1` the figure was 37.5 µM.
As to `O=C(Nc1ccc(S(=O)(=O)N2CCOCC2)cc1)c1ccc(F)cc1`, the AC was > 38 µM (inactive).
The figure for `O=C(Cc1n[nH]c(=O)[nH]c1=O)N/N=C/c1c(O)ccc2ccccc12` is > 38 µM (inactive); for `COc1ccc(/C=N/Nc2ccc([N+](=O)[O-])cc2)cc1O` it is 36.6 µM; for `Cn1c(=O)c2c(-c3ccccc3)n(-c3cc(Cl)c([N+](=O)[O-])cc3O)cc2n(C)c1=O` it is 28.3 µM.
As for `CSc1ccc(/C=N/NC(=O)c2ccc3nc[nH]c3c2)cc1`, the AC is 37.7 µM.
Regarding `COC(=O)C(C)Oc1cc(OC(C)C(=O)OC)c2c(C)c(Cl)c(=O)oc2c1` (centres undefined), the AC is > 38 µM (inactive).
The figure for `Cc1[nH]c2ccc(C(=O)OCC(=O)Nc3cccc(S(N)(=O)=O)c3)cc2c1C` is 10.1 µM.
As for `O=C(N[C@H]1C=C[C@H](CC(=O)N2CCCCC2)O[C@H]1CO)c1cccc(F)c1`, the AC was 35.5 µM.
With `CC(=O)Nc1cccc(C(=O)N/N=C/c2c[nH]c3ccccc23)c1` the figure was 13.7 µM; with `Cc1cc(C)cc(NC(=O)CN2C(=O)NC(Cc3c[nH]c4ccccc34)C2=O)c1` (centres undefined), > 38 µM (inactive).
The figure for `COc1ccc(N2CCN(CCOc3ccc4c(C)cc(=O)oc4c3)CC2)cc1` is > 38 µM (inactive); for `O=C(N/N=C/c1c[nH]c2ccccc12)c1cccs1` it is 23.4 µM.
On to `Cc1cc(C(=O)N/N=C/c2c[nH]c3ccccc23)cs1`, for which the AC was 30.3 µM.
On to `O=C(O)c1[nH]c2ccc(Br)cc2c1CCN1C(=O)c2cccc([N+](=O)[O-])c2C1=O`, for which the AC was > 38 µM (inactive).
With `C[C@@H]1CN([C@H](C)CO)C(=O)Cc2cc(N(C)C)ccc2O[C@@H]1CN(C)Cc1ccc(Cl)c(Cl)c1` the figure was 37.3 µM; with `CNC[C@H]1Oc2ccc(NC(=O)Cc3cn(C)c4ccccc34)cc2C(=O)N([C@H](C)CO)C[C@H]1C`, > 42 µM (inactive).
The figure for `NC(=O)c1ccsc1NC(=O)COC(=O)Cc1c[nH]c2ccccc12` is 27.6 µM.
With `O=C(N/N=C/c1c[nH]c2ccccc12)c1cccc(Cl)c1` the figure was 27.9 µM.
In the case of `CC(C)c1c(C(=O)N/N=C/c2c[nH]c3ccccc23)nnn1-c1nonc1N`, the AC was 27.4 µM.
The figure for `O=C(CC1SC(=O)NC1=O)Nc1ccc(Cl)cc1` (centres undefined) is 33.2 µM.
The figure for `CC1C=NC(S(=O)(=O)N2CC[C@@H]3[C@@H](CO)N(C)c4ccc(-c5ccc(F)cc5)cc4[C@@H]32)=N1` (some centres undefined) is > 38 µM (inactive).
The figure for `CC1(C(=O)NS(=O)(=O)Cc2cccc(Cl)c2)CCN1C(=O)C1(c2ccc(Cl)cc2)CCC1` (centres undefined) is 24.4 µM; for `N#Cc1ccc(NC(=O)Nc2cccc(C#N)c2)cc1` it is 30.1 µM; for `Cc1onc(-c2ccccc2)c1C(=O)Nc1ncc([N+](=O)[O-])s1` it is 34 µM.

These data come from PubChem BioAssay AID720646 (Broad Institute, 2013).
